# Laboratory results: ChEMBL document CHEMBL6109105, “Design, synthesis and antibacterial evaluation of oxazolidinone derivatives containing N-methylglycyl or quaternary ammonium salts” (Bioorg Med Chem, 2025)
# Active and inactive are the calls of the source. No cut-off for these calls is given here.
# What was measured:
# Staphylococcus aureus [1] = assay: Antibacterial activity against Staphylococcus aureus ATCC 29213 assessed as inhibition of bacterial growth by CLSI protocol based broth liquid microdilution method; assay type: functional
# Staphylococcus aureus [2] = assay: Antibacterial activity against methicillin-resistant Staphylococcus aureus assessed as inhibition of bacterial growth by CLSI protocol based broth liquid microdilution method; assay type: functional
# Enterococcus [3] = assay: Antibacterial activity against vancomycin-resistant enterococcus assessed as inhibition of bacterial growth by CLSI protocol based broth liquid microdilution method; assay type: functional
# Staphylococcus aureus [4] = assay: Antibacterial activity against methicillin-resistant Staphylococcus aureus; assay type: functional
# Staphylococcus aureus [5] = assay: Antibacterial activity against methicillin-sensitive Staphylococcus aureus; assay type: functional
# Streptococcus pneumoniae = assay: Antibacterial activity against penicillin-resistant Streptococcus pneumoniae; assay type: functional
# Enterococcus [6] = assay: Antibacterial activity against vancomycin-resistant enterococcus; assay type: functional
# Staphylococcus aureus [7] = assay: Antibacterial activity against Staphylococcus aureus ATCC 29213 assessed as inhibition of bacterial growth incubated for 16 to 18 hrs by microbroth dilution method; assay type: functional; conditions: time 16-18 hrs, read-out: MIC100
# Escherichia coli = assay: Antibacterial activity against Escherichia coli ATCC 25922 assessed as inhibition of bacterial growth incubated for 16 to 18 hrs by microbroth dilution method; assay type: functional; conditions: time 16-18 hrs, read-out: MIC100
# [8] = system: Stenotrophomonas maltophilia; assay: Antibacterial activity against Stenotrophomonas maltophilia ATCC 17808 assessed as inhibition of bacterial growth incubated for 16 to 18 hrs by microbroth dilution method; assay type: functional; conditions: time 16-18 hrs, read-out: MIC100
# [9] = Hemolytic activity in sheep RBC assessed as hemolysis incubated for 1 hrs by microplate reader analysis; assay type: toxicity, cell-based, Ovis aries, Erythrocyte; conditions: sheep red blood cells
# Enterococcus faecalis [10] = assay: Antibacterial activity against Enterococcus faecalis assessed as inhibition of bacterial growth incubated for 3 hrs in presence of 50% MHB by dilution method; assay type: functional, organism-based
# Enterococcus faecalis [11] = assay: Antibacterial activity against Enterococcus faecalis assessed as inhibition of bacterial growth incubated for 3 hrs in presence of 50% plasma by dilution method; assay type: functional
# Enterococcus faecalis [12] = assay: Post-antibiotic affect in Enterococcus faecalis assessed as reduction in growth rate at 8 times of MIC measured after 1 hrs; assay type: functional, organism-based
# Enterococcus faecalis [13] = assay: Post-antibiotic affect in Enterococcus faecalis assessed as reduction in growth rate at 16 times of MIC measured after 1 hrs; assay type: functional, organism-based
# Enterococcus faecalis [14] = assay: Antibacterial activity against Enterococcus faecalis assessed as post-antibiotic effect at 8 times of MIC measured up to 8 hrs; assay type: functional
# Enterococcus faecalis [15] = assay: Disruption of preformed biofilm in Enterococcus faecalis assessed as bacterial survival rate at 16 times of MIC measured after 24 hrs relative to control; assay type: functional
# Enterococcus faecalis [16] = assay: Disruption of preformed biofilm in Enterococcus faecalis assessed as bacterial survival rate at 32 times of MIC measured after 24 hrs relative to control; assay type: functional
# Enterococcus faecalis [17] = assay: Antipersister-activity against in Enterococcus faecalis assessed as log reduction in persistent cells at 32 times of MIC preincubated with 100 times of MIC of rifampicin for 24 hrs followed by compound addition and measured after 8 hrs by drop plate counting method; assay type: functional
# Cell membrane [18] = assay: Induction of cytoplasmic membrane depolarization in Enterococcus faecalis assessed as increase in fluorescence intensity by DiSC35 dye based microplate reader analysis
# Cell membrane [19] = assay: Induction of cytoplasmic membrane permeability in Enterococcus faecalis assessed as increase in fluorescence intensity at 8 times of MIC by PI staining based analysis
# Cell membrane [20] = assay: Induction of cell membrane damage in Enterococcus faecalis assessed as nucleic acid leakage at 8 times of MIC incubated for 2 hrs by fluorescence spectrophotometric analysis; assay type: subcellular
# Cell membrane [21] = assay: Induction of cell membrane damage in Enterococcus faecalis assessed as nucleic acid leakage at 16 times of MIC incubated for 2 hrs by fluorescence spectrophotometric analysis; assay type: subcellular
# Cell membrane [22] = assay: Induction of cell membrane damage in Enterococcus faecalis assessed as nucleic acid leakage at 32 times of MIC incubated for 2 hrs by fluorescence spectrophotometric analysis; assay type: subcellular
# Enterococcus faecalis [23] = assay: Induction of ROS accumulation in Enterococcus faecalis assessed as fluorescence intensity at 8 times of MIC incubated for 30 mins by DCFH-DA staining based microplate reader analysis; assay type: functional; conditions: 0.5 h
# Enterococcus faecalis [24] = assay: Induction of ROS-dependent oxidative stress in Enterococcus faecalis assessed as decrease in GSH activity at 8 times of MIC (reference value: 1.34 %); assay type: functional; parameters: scale not given: the % may be the effect or the level left
# [25] = Cytotoxicity against human HeLa cells assessed as cell viability at 64 microg/ml incubated for 24 hrs by CCK8 assay relative to control; assay type: toxicity, cell-based; conditions: at 64 µg/mL, read-out: Activity
# Enterococcus faecalis [26] = assay: Antibacterial activity against Enterococcus faecalis ATCC 29212 assessed as inhibition of bacterial growth incubated for 16 to 18 hrs by microbroth dilution method; assay type: functional; conditions: time 16-18 hrs, read-out: MIC100
# [27] = Hemolytic activity in sheep RBC assessed as hemolysis at 1280 microg/ml incubated for 1 hrs by microplate reader analysis relative to control; assay type: toxicity, cell-based, Ovis aries, Erythrocyte; conditions: sheep red blood cells, dose 1280 µg/ml, read-out: Activity
# Enterococcus faecalis [28] = assay: Bactericidal activity against Enterococcus faecalis assessed as reduction in bacterial count at 4 times of MIC measured within 10 hrs by time-kill kinetics analysis; assay type: functional
# [29] = (§1) Selectivity ratio of MIC for antibacterial activity against Enterococcus faecalis assessed as inhibition of bacterial growth measured after 3 hrs in presence of 50% plasma to MIC for antibacterial activity against Enterococcus faecalis assessed as inhibition of bacterial growth assessed as inhibition of bacterial growth measured after 16 to 18 hrs; assay type: functional
# Enterococcus faecalis [30] = assay: Antibacterial activity against Enterococcus faecalis assessed as inhibition of bacterial growth incubated for 16 to 18 hrs in presence of 50% MHB by dilution method; assay type: functional; conditions: time 16-18 hrs
# Enterococcus faecalis [31] = assay: Antibacterial activity against Enterococcus faecalis assessed as inhibition of bacterial growth incubated for 16 to 18 hrs in presence of 50% plasma by dilution method; assay type: functional; conditions: time 16-18 hrs
# Enterococcus faecalis [32] = assay: Antibacterial activity against Enterococcus faecalis assessed as inhibition of bacterial growth incubated for 16 to 18 hrs in presence of 50% serum by dilution method; assay type: functional; conditions: time 16-18 hrs
# Enterococcus faecalis [33] = assay: Antibacterial activity against Enterococcus faecalis assessed as post-antibiotic effect at 16 times of MIC measured up to 8 hrs; assay type: functional
# Enterococcus faecalis [34] = assay: Disruption of preformed biofilm in Enterococcus faecalis assessed as reduction in bacterial density at 32 times of MIC measured after 24 hrs by SYTO 9 staining based confocal laser scanning microscopic analysis; assay type: functional, organism-based
# Enterococcus faecalis [35] = assay: Induction of ROS accumulation in Enterococcus faecalis assessed as increase in fluorescence intensity at 8 times of MIC incubated for 30 mins in presence of NAC by DCFH-DA staining based microplate reader analysis; assay type: functional, organism-based
# Enterococcus faecalis [36] = assay: Induction of ROS-dependent oxidative stress in Enterococcus faecalis assessed as decrease in GSH activity at 32 microg/ml (reference value: 1.34 %); assay type: functional; parameters: scale not given: the % may be the effect or the level left; conditions: dose 32 µg/ml
# Enterococcus faecalis [37] = assay: Drug resistance, ratio of MIC for Enterococcus faecalis measured after 5 days to MIC for Enterococcus faecalis measured after 16 to 18 hrs; assay type: functional
# Enterococcus faecalis [38] = assay: Antibacterial activity against Enterococcus faecalis assessed as inhibition of bacterial growth at 0.5 times of MIC incubated for 15 days by bacterial resistance development assay; assay type: functional, organism-based; conditions: time 15.0 day
# HeLa [39] = assay: Cytotoxicity against human HeLa cells assessed as increase in fluorescence intensity at 1 to 16 microg/ml by vesicle leakage assay; assay type: toxicity, cell-based; conditions: dose 1-16 µg/ml
# HeLa [40] = assay: Cytotoxicity against human HeLa cells assessed as increase in red fluorescence at 32 microg/ml incubated for 24 hrs by calcein-AM/PI staining based fluorescence microscopic analysis; assay type: toxicity, cell-based; conditions: dose 32 µg/ml
# [41] = as §1, with “immediately” for “after 3 hrs”; assay type: functional
smiles,measurement,setting,value
CC(=O)NC[C@H]1CN(c2ccc(N3CCN(/N=C\c4ccc([N+](=O)[O-])o4)CC3)c(F)c2)C(=O)O1,MIC,Staphylococcus aureus [1],0.25 mg/L
same,MIC,Staphylococcus aureus [2],1 mg/L
same,MIC,Enterococcus [3],1 mg/L
CC(=O)NC[C@H]1CN(c2ccc(N3CCN(Cc4ccc([N+](=O)[O-])o4)CC3)c(F)c2)C(=O)O1 [RANBEZOLID],MIC,Staphylococcus aureus [4],0.06 mg/L
same,MIC,Staphylococcus aureus [5],0.06 mg/L
same,MIC,Streptococcus pneumoniae,0.06 mg/L
same,MIC,Enterococcus [6],0.06 mg/L
CC(=O)NC[C@H]1CN(c2ccc(N3CCOCC3)c(F)c2)C(=O)O1 [LINEZOLID],MIC,Staphylococcus aureus [7],1 mg/L
same,MIC,Escherichia coli,> 128 mg/L
same,MIC,[8],> 128 mg/L
same,HC50 at 1 h,[9],> 1280 µg/mL
same,Activity,Enterococcus faecalis [10],Active
same,Activity,Enterococcus faecalis [11],Active
same,Activity,Enterococcus faecalis [12],Active
same,Activity,Enterococcus faecalis [13],Active
same,PAE,Enterococcus faecalis [14],0.67 h
same,Activity,Enterococcus faecalis [15],1.36%
same,Activity,Enterococcus faecalis [16],0.49%
same,Activity,Enterococcus faecalis [17],3.24 log10CFU/ml
same,Activity,Cell membrane [18],inactive
same,Activity,Cell membrane [19],inactive
same,Activity,Cell membrane [20],Active
same,Activity,Cell membrane [21],Active
same,Activity,Cell membrane [22],Active
same,Flu intensity,Enterococcus faecalis [23],377 a.u.
same,Activity,Enterococcus faecalis [24],13.01%
same,"viability at 24 h, 64 microg/ml",[25],56.5%
CC(=O)NC[C@H]1CN(c2ccc(N3CCN(C(=O)CN(C)Cc4ccc([N+](=O)[O-])cc4)CC3)c(F)c2)C(=O)O1,MIC,Staphylococcus aureus [7],8 mg/L
same,MIC,Enterococcus faecalis [26],2 mg/L
same,MIC,Escherichia coli,> 128 mg/L
same,MIC,[8],> 128 mg/L
same,HC50 at 1 h,[9],> 1280 µg/mL
same,"hemolysis at 1 h, 1280 microg/ml",[27],3.19%
same,Activity,Enterococcus faecalis [28],~1 10^4CFU/ml
same,Activity,Enterococcus faecalis [10],Active
same,MIC,Enterococcus faecalis [11],8 mg/L
same,Selectivity ratio,[29],4
same,MIC,Enterococcus faecalis [30],2 mg/L
same,MIC,Enterococcus faecalis [31],2 mg/L
same,MIC,Enterococcus faecalis [32],4 mg/L
same,Activity,Enterococcus faecalis [12],Active
same,Activity,Enterococcus faecalis [13],Active
same,PAE,Enterococcus faecalis [14],0.44 h
same,PAE,Enterococcus faecalis [33],5.13 h
same,Activity,Enterococcus faecalis [15],0.3%
same,Activity,Enterococcus faecalis [16],0.04%
same,Activity,Enterococcus faecalis [34],Active
same,Activity,Enterococcus faecalis [17],3.71 log10CFU/ml
same,Activity,Cell membrane [18],inactive
same,Activity,Cell membrane [19],inactive
same,Activity,Cell membrane [20],Active; Small Amount Of Leakage Observed
same,Activity,Cell membrane [21],Active; Small Amount Of Leakage Observed
same,Activity,Cell membrane [22],Active; Small Amount Of Leakage Observed
same,Flu intensity,Enterococcus faecalis [23],280 a.u.
same,Activity,Enterococcus faecalis [35],inactive
same,Activity,Enterococcus faecalis [36],45.89%
same,Ratio,Enterococcus faecalis [37],2
same,Activity,Enterococcus faecalis [38],Active
same,"viability at 24 h, 64 microg/ml",[25],59.8%
same,Activity,HeLa [39],Non-toxic
same,Activity,HeLa [40],Non-toxic
CC[C@H](C)[C@H](NC(=O)CN)C(=O)NCC(=O)N[C@@H](C)C(=O)N[C@H](C(=O)N[C@@H](CC(C)C)C(=O)N[C@@H](CCCCN)C(=O)N[C@H](C(=O)N[C@@H](CC(C)C)C(=O)N[C@H](C(=O)N[C@H](C(=O)NCC(=O)N[C@@H](CC(C)C)C(=O)N1CCC[C@H]1C(=O)N[C@@H](C)C(=O)N[C@@H](CC(C)C)C(=O)N[C@H](C(=O)N[C@@H](CO)C(=O)N[C@@H](Cc1c[nH]c2ccccc12)C(=O)N[C@H](C(=O)N[C@@H](CCCCN)C(=O)N[C@@H](CCCNC(=N)N)C(=O)N[C@@H](CCCCN)C(=O)N[C@@H](CCCNC(=N)N)C(=O)N[C@@H](CCC(N)=O)C(=O)N[C@@H](CCC(N)=O)C(N)=O)[C@@H](C)CC)[C@@H](C)CC)[C@@H](C)O)[C@@H](C)O)C(C)C)C(C)C [MELITTIN],MIC,Enterococcus faecalis [11],32 mg/L
same,Selectivity ratio,[41],>16
same,Selectivity ratio,[29],>16
same,Activity,Cell membrane [19],Active
same,"viability at 24 h, 64 microg/ml",[25],5.2%
same,Activity,HeLa [40],Toxic
COc1cccc(CN(C)CC(=O)N2CCN(c3ccc(N4C[C@H](CNC(C)=O)OC4=O)cc3F)CC2)c1,MIC,Staphylococcus aureus [7],16 mg/L
same,MIC,Enterococcus faecalis [26],2 mg/L
same,MIC,Escherichia coli,> 128 mg/L
same,MIC,[8],> 128 mg/L
same,HC50 at 1 h,[9],> 1280 µg/mL
